The values that follow come from US11136329B2, “JAK inhibitors” (Vimalan Biosciences, Inc., priority 2019, dated 2021).

Common to all, as to type: biochemical
Test [1] deals with JAK1 (Homo sapiens (Human), UniProt P23458). Kind of test: JAK/TYK2 assay (Kinase Glo luminescence), JAK1. The settings on record: 7.5 nM enzyme, 2 uM ATP, 30 uM IRS-1, 1 hr. On the procedure: (§1) 10 mM test compound stock or 1 mM control compound stock (tofocitinib, ruxolitinib or staurosporine) in DMSO was diluted to 0.4 mM in DMSO. A 3-fold series dilution was then performed in DMSO to generate 10 different compound concentrations. The assay was carried out in 384-well white plate. 0.5 uL of 40× compound DMSO solution at different concentrations was mixed with 10 uL 2× enzyme prepared in reaction buffer (20 mM HEPES, 10 mM MgCl2, 0.01% Tween, 1 mM DTT, pH 7.5). 10 uL 2× substrate mixture prepared in reaction buffer was then added to start the reaction. A short spin was done to settle down all solutions to the bottom of the plate. Final concentrations of test compound in the reaction mixture were 10000, 3333, 1111, 370, 123, 41.2, 13.7, 4.57, 1.52and 0.51 nM. Concentrations of control compound were ten times less. Enzymatic reaction was conducted at 25° C. for 1-2 hours. 10 uL of Kinase Glo Reagents was added to stop the reaction and generate the luminescent signal which was measured using Envision. Luminescence signal was inversely related to kinase activity. […] The mixture without any compound was the positive control.
JAK1, sequence (P23458 whole entry, species assumed): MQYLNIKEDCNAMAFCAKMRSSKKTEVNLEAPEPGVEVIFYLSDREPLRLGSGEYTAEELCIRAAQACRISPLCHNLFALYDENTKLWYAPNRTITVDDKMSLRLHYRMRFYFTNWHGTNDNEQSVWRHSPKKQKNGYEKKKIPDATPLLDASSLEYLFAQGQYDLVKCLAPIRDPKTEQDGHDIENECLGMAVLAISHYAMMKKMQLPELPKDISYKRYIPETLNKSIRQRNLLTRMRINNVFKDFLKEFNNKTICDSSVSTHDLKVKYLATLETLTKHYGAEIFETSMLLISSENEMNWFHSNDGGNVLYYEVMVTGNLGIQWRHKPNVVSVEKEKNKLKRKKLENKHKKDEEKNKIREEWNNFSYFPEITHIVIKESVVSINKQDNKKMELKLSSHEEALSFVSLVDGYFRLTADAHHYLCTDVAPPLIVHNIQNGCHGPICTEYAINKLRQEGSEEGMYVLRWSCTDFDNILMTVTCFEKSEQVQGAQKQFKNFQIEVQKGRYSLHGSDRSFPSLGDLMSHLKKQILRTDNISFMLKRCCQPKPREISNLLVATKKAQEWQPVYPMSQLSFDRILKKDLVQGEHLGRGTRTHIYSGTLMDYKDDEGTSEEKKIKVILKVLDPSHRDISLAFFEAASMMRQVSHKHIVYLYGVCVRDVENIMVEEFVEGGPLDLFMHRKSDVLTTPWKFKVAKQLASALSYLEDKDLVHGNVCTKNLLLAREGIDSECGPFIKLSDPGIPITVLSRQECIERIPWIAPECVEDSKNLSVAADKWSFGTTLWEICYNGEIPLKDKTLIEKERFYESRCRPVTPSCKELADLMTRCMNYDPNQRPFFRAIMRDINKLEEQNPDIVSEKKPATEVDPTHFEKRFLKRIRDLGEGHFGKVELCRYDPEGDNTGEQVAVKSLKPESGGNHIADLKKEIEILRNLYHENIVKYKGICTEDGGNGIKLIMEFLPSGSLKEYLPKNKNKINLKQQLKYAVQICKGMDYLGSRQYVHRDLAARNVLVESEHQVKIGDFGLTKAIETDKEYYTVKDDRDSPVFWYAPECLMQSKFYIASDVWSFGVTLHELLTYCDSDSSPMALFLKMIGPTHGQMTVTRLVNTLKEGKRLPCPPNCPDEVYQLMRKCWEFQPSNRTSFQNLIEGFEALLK

The target of test [2] is JAK2 (Homo sapiens (Human), UniProt O60674). Kind of test: JAK/TYK2 assay (Kinase Glo luminescence), JAK2. The settings on record: 0.8 nM enzyme, 2 uM ATP, 4 uM pEY, 1 hr. As to the method:
as §1
For orientation: Kinase-Glo reads ATP consumption through a luciferase reaction.

Test [3] concerns the target JAK3 (Homo sapiens (Human), UniProt P52333). Briefly: JAK/TYK2 assay (Kinase Glo luminescence), JAK3. The settings on record: 1.5 nM enzyme, 2 uM ATP, 4 uM pEY, 1 hr. As to the method: as §1
Test [4] concerns the target TYK2 (Homo sapiens (Human), UniProt P29597). Kind of test: JAK/TYK2 assay (Kinase Glo luminescence), TYK2. The settings on record: 9 nM enzyme, 2 uM ATP, 30 uM IRS-1, 1 hr. As to the method:
as §1

pIC50: −log10 of the molar value. Bounds are passed on as bounds.

JAK2, sequence (O60674 whole entry, species assumed): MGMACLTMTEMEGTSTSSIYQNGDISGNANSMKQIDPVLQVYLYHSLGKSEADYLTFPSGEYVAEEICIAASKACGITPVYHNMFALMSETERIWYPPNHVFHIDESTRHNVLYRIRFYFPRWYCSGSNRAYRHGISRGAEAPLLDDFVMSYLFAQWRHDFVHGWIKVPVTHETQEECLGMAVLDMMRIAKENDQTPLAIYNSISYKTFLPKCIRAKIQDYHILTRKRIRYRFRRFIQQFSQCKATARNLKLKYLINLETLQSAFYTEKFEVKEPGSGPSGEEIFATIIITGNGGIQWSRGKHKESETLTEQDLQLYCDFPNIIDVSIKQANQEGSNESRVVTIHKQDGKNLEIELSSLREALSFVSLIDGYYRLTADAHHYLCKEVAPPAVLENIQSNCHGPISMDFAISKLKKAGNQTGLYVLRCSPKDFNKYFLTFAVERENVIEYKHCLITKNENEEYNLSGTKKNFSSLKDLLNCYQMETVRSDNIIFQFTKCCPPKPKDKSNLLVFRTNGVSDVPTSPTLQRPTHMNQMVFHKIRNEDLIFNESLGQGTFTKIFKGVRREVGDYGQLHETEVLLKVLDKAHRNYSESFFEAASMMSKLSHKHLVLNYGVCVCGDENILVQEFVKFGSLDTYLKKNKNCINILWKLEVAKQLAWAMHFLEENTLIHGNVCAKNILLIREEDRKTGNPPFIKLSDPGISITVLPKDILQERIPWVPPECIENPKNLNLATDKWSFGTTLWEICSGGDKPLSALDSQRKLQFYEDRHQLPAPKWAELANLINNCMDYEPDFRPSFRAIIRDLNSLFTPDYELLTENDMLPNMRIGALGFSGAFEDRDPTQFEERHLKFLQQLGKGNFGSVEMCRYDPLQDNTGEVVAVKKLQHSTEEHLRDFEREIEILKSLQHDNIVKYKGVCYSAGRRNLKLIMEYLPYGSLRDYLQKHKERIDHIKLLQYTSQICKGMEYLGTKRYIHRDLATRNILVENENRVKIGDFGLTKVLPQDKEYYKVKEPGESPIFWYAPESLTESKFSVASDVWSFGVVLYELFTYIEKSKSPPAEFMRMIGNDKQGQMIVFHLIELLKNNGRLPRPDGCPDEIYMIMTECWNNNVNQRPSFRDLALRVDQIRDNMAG
TYK2, sequence (P29597 whole entry, species assumed): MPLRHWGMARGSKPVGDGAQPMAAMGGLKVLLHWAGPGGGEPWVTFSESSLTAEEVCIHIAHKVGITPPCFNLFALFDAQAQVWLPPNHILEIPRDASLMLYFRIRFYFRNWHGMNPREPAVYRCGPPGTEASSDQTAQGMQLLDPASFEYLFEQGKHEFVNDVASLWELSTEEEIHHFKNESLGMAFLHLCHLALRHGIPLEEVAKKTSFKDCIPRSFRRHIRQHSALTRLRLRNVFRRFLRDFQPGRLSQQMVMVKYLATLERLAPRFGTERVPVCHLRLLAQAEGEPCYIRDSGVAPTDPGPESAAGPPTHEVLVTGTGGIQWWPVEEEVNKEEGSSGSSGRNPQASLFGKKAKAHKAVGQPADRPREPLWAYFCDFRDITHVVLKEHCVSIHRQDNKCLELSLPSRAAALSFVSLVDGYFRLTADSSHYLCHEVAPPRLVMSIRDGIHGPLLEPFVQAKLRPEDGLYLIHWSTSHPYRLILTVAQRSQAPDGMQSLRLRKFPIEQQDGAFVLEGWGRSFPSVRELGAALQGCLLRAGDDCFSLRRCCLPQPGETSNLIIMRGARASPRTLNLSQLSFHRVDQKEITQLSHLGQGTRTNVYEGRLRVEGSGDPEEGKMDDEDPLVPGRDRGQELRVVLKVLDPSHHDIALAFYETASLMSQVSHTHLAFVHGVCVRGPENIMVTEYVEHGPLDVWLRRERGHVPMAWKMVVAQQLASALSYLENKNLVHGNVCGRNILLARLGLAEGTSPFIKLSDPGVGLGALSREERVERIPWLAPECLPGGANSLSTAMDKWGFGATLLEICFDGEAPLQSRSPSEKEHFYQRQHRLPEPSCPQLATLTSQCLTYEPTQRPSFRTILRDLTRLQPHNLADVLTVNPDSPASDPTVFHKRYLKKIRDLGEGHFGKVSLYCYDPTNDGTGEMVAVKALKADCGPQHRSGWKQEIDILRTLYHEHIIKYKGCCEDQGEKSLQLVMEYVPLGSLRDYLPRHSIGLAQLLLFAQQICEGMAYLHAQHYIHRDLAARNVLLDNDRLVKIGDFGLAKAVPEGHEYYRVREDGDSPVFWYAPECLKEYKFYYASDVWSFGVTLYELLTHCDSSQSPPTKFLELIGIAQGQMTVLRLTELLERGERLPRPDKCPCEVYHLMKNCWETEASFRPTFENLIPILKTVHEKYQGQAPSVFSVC
JAK3, sequence (P52333 whole entry, species assumed): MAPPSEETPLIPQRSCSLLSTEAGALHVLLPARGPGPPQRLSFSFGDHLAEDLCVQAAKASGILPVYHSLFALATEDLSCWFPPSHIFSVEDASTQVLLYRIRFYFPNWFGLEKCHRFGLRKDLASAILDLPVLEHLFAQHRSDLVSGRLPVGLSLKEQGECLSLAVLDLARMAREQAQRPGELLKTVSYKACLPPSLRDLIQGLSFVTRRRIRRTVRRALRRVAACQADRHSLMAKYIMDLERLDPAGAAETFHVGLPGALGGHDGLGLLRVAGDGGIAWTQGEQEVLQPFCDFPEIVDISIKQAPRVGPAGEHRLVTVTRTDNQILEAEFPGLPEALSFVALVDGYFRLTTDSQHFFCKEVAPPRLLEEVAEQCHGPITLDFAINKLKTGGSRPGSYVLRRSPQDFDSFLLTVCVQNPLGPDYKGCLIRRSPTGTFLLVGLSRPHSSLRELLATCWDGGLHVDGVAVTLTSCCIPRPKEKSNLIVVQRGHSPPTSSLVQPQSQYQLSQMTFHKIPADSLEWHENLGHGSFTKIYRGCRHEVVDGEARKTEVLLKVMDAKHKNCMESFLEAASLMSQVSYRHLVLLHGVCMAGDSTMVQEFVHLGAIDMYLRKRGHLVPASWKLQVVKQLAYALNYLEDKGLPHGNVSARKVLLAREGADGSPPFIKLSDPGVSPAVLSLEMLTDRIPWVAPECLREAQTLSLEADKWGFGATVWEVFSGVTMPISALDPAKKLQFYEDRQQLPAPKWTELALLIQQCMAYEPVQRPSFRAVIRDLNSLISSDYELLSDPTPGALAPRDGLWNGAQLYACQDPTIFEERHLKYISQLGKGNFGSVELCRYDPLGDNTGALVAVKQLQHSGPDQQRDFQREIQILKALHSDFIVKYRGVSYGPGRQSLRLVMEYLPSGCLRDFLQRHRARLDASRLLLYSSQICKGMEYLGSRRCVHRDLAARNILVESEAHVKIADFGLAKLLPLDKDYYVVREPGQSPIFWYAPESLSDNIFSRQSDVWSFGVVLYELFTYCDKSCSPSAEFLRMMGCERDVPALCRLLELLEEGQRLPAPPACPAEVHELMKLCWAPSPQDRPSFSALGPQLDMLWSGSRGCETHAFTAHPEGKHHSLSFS

For `CCC(CC)Cn1ccc2cnc(Nc3cnn(CC(=O)O)c3)nc21` [Compound 9, 2-(4-((7-(2-ethylbutyl)-7H-pyrrolo[2,3-d]pyrimidin-2-yl)amino)-1H-pyrazol-1-yl)acetic acid], the pIC50 in test [1], in test [2], in test [3] and in test [4] was over 7.00 each time.
As for `O=C(O)Cn1cc(Nc2ncc3ccn(Cc4ccsc4)c3n2)cn1` [Compound 11, 2-(4-((7-(thiophen-3-ylmethyl)-7H-pyrrolo[2,3-d]pyrimidin-2-yl)amino)-1H-pyrazol-1-yl)acetic acid], the pIC50 (in general, the IC50 on a negative log10 scale, so that one unit is a factor of ten) in test [1] is 6.00 to 7.00; in test [2], over 7.00; in test [3], over 7.00; in test [4], over 7.00.
With `O=C(O)CCn1cc(Nc2ncc3ccn(Cc4ccsc4)c3n2)cn1` [Compound 19, 3-(4-((7-(thiophen-3-ylmethyl)-7H-pyrrolo[2,3-d]pyrimidin-2-yl)amino)-1H-pyrazol-1-yl)propanoic acid], the pIC50 in test [1], in test [2], in test [3] and in test [4] was over 7.00 in each case.
Consider `CCC(C)OC(=O)Cn1cc(Nc2ncc3ccn(CC(CC)C(C)C)c3n2)cn1` (stereo not shown) [Compound 107, sec-butyl 2-(4-((7-(2-ethyl-3-methylbutyl)-7H-pyrrolo[2,3-d]pyrimidin-2-yl)amino)-1H-pyrazol-1-yl)acetate], for which the pIC50 in test [1], in test [2], in test [3] and in test [4] was over 7.00 throughout.
Consider `CCC(Cn1ccc2cnc(Nc3cnn(CC(=O)OC(C)C)c3)nc21)C(C)C` (stereo not shown) [Compound 83, isopropyl 2-(4-((7-(2-ethyl-3-methylbutyl)-7H-pyrrolo[2,3-d]pyrimidin-2-yl)amino)-1H-pyrazol-1-yl)acetate], for which the pIC50 in test [1], in test [2], in test [3] and in test [4] was over 7.00 in each case.
As for `CCOC(=O)C(C)n1cc(Nc2ncc3ccn(C[C@H]4CC[C@H](O)CC4)c3n2)cn1` (stereo partly shown) [Compound 120, ethyl 2-(4-((7-(((1r,4r)-4-hydroxycyclohexyl)methyl)-7H-pyrrolo[2,3-d]pyrimidin-2-yl)amino)-1H-pyrazol-1-yl)propanoate], the negative logarithm of the IC50 (pIC50) in test [1], in test [2], in test [3] and in test [4] was over 7.00 in each case.
Regarding `CC[C@@H](Cn1ccc2cnc(Nc3cnn(C(C)C(=O)O)c3)nc21)C(C)C` (stereo partly drawn) [Compound 114, 2-(4-((7-((R)-2-ethyl-3-methylbutyl)-7H-pyrrolo[2,3-d]pyrimidin-2-yl)amino)-1H-pyrazol-1-yl)propanoic acid], the pIC50 in test [1], in test [2], in test [3] and in test [4] was over 7.00 throughout.
Regarding `CCOC(=O)Cn1cc(Nc2ncc3ccn(CCC4CCCCC4)c3n2)cn1` [Compound 18, ethyl 2-(4-((7-(2-cyclohexylethyl)-7H-pyrrolo[2,3-d]pyrimidin-2-yl)amino)-1H-pyrazol-1-yl)acetate], the pIC50 in test [1] is under 5.00; in test [2] it was 6.00 to 7.00; in test [3] it was over 7.00; in test [4], over 7.00.
Regarding `CCOC(=O)CCn1cc(Nc2ncc3ccn(Cc4ccsc4)c3n2)cn1` [Compound 16, ethyl 3-(4-((7-(thiophen-3-ylmethyl)-7H-pyrrolo[2,3-d]pyrimidin-2-yl)amino)-1H-pyrazol-1-yl)propanoate], the pIC50 is 6.00 to 7.00 in test [1], over 7.00 in test [2], over 7.00 in test [3] and over 7.00 in test [4].
`CC[C@@H](Cn1ccc2cnc(Nc3cnn(CC(=O)OC(C)C)c3)nc21)C(C)C` [Compound 132, isopropyl (R)-2-(4-((7-(2-ethyl-3-methylbutyl)-7H-pyrrolo[2,3-d]pyrimidin-2-yl)amino)-1H-pyrazol-1-yl)acetate]: the pIC50 in test [1], in test [2], in test [3] and in test [4] was over 7.00 throughout.
For `CCOC(=O)CCn1cc(Nc2ncc3ccn(CC(CC)C(C)C)c3n2)cn1` (stereo not shown) [Compound 30, ethyl 3-(4-((7-(2-ethyl-3-methylbutyl)-7H-pyrrolo[2,3-d]pyrimidin-2-yl)amino)-1H-pyrazol-1-yl)propanoate], the pIC50 in test [1], in test [2], in test [3] and in test [4] was over 7.00 in each case.
Regarding `CCC(Cn1ccc2cnc(Nc3cnn(CC(=O)O)c3)nc21)C(C)C` (stereo not shown) [Compound 29, 2-(4-((7-(2-ethyl-3-methylbutyl)-7H-pyrrolo[2,3-d]pyrimidin-2-yl)amino)-1H-pyrazol-1-yl)acetic acid], the pIC50 in test [1], in test [2], in test [3] and in test [4] was over 7.00 in each case.
`CCOC(=O)Cn1ccc(Nc2ncc3ccn(CC(CC)CC)c3n2)n1` [Compound 44, ethyl 2-(3-((7-(2-ethylbutyl)-7H-pyrrolo[2,3-d]pyrimidin-2-yl)amino)-1H-pyrazol-1-yl)acetate]: the pIC50 in test [1] is 5.00 to 6.00; in test [2], 6.00 to 7.00; in test [3], 6.00 to 7.00; in test [4] it was 6.00 to 7.00.
As for `CCC(Cn1ccc2cnc(Nc3cnn(C(=O)OC(C)(C)C)c3)nc21)C(C)C` (stereo not shown) [Compound 137, tert-butyl 4-((7-(2-ethyl-3-methylbutyl)-7H-pyrrolo[2,3-d]pyrimidin-2-yl)amino)-1H-pyrazole-1-carboxylate], the pIC50 in test [1], in test [2], in test [3] and in test [4] was over 7.00 in each case.
In the case of `O=C(O)Cn1cc(Nc2ncc3ccn(CC4CCCCC4)c3n2)cn1` [Compound 15, 2-(4-((7-(cyclohexylmethyl)-7H-pyrrolo[2,3-d]pyrimidin-2-yl)amino)-1H-pyrazol-1-yl)acetic acid], the pIC50 in test [1], in test [2], in test [3] and in test [4] was over 7.00 in each case.
On to `CCCCOC(=O)Cn1cc(Nc2ncc3ccn(CC(CC)C(C)C)c3n2)cn1` (stereo not shown) [Compound 84, butyl 2-(4-((7-(2-ethyl-3-methylbutyl)-7H-pyrrolo[2,3-d]pyrimidin-2-yl)amino)-1H-pyrazol-1-yl)acetate], for which the pIC50 in test [1], in test [2], in test [3] and in test [4] was over 7.00 throughout.
In the case of `CCOC(=O)Cn1cc(Nc2ncc3ccn(CC(CC)CC#N)c3n2)cn1` (stereo not shown) [Compound 70, ethyl 2-(4-((7-(2-(cyanomethyl)butyl)-7H-pyrrolo[2,3-d]pyrimidin-2-yl)amino)-1H-pyrazol-1-yl)acetate], the pIC50 in test [1], in test [2], in test [3] and in test [4] was over 7.00 in each case.
As to `CCOC(=O)Cn1cc(Nc2ncc3ccn(C[C@H]4CC[C@H](O)CC4)c3n2)cn1` [Compound 51, ethyl 2-(4-((7-(((1r,4r)-4-hydroxycyclohexyl)methyl)-7H-pyrrolo[2,3-d]pyrimidin-2-yl)amino)-1H-pyrazol-1-yl)acetate], the pIC50 in test [1], in test [2], in test [3] and in test [4] was over 7.00 in each case.
With `CCOC(=O)Cn1cc(Nc2ncc3ccn(C[C@H]4CC[C@@H](OC)CC4)c3n2)cn1` [Compound 128, ethyl 2-(4-((7-(((1s,4s)-4-methoxycyclohexyl)methyl)-7H-pyrrolo[2,3-d]pyrimidin-2-yl)amino)-1H-pyrazol-1-yl)acetate], the pIC50 in test [1] was 5.00 to 6.00; in test [2] it was 6.00 to 7.00; in test [3], 6.00 to 7.00; in test [4], 6.00 to 7.00.
For `CCOC(=O)Cn1cc(Nc2ncc3ccn(CC4(C)CCCC4)c3n2)cn1` [Compound 41, ethyl 2-(4-((7-((1-methylcyclopentyl)methyl)-7H-pyrrolo[2,3-d]pyrimidin-2-yl)amino)-1H-pyrazol-1-yl)acetate], the pIC50 in test [1], in test [2], in test [3] and in test [4] was over 7.00 in each case.
In the case of `CCOC(=O)Cn1cc(Nc2ncc3ccn(CC45CC6CC(CC(C6)C4)C5)c3n2)cn1` [Compound 34, ethyl 2-(4-((7-(((s,3s)-adamantan-1-yl)methyl)-7H-pyrrolo[2,3-d]pyrimidin-2-yl)amino)-1H-pyrazol-1-yl)acetate], the pIC50 in test [1] is 6.00 to 7.00; in test [2], over 7.00; in test [3] it was over 7.00; in test [4] it was over 7.00.
On to `CCOC(=O)Cn1cc(Nc2ncc3ccn(CC4CCCC(C)C4)c3n2)cn1` (stereo not shown) [Compound 45, ethyl 2-(4-((7-((3-methylcyclohexyl)methyl)-7H-pyrrolo[2,3-d]pyrimidin-2-yl)amino)-1H-pyrazol-1-yl)acetate], for which the pIC50 in test [1], in test [2], in test [3] and in test [4] was over 7.00 in each case.
